Reference: article PMC5588548, “Suramin Inhibits Osteoarthritic Cartilage Degradation by Increasing Extracellular Levels of Chondroprotective Tissue Inhibitor of Metalloproteinases 3” (Molecular Pharmacology, 2017)
Values after ≈ are worked out from the molar mass of the structure shown.

Legend:
human TIMP-3 = target: T1, human TIMP-3 (Homo sapiens, UniProt P35625); assay: Solid-phase binding of TIMP-3 to immobilized suramin or analogs (ELISA); settings: TIMP-3 0.4–50 nM
T1 construct: made in house; host or cells: human embryonic kidney 293 cells
T1 sequence (P35625 24-211): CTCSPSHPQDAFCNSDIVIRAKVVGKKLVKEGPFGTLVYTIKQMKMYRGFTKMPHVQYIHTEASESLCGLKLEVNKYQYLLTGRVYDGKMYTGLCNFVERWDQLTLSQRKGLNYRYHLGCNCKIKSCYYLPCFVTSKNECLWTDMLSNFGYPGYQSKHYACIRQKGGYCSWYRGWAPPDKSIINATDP
Description: Glycosaminoglycan-binding ELISA plates (BD Life Sciences, Swindon, UK) were coated with suramin or its analogs (10 µg/ml in Tris-buffered saline, 18 hours, 25°C) ([Mahoney et al., 2004]) and wells were blocked with 0.2% gelatin in PBS (1 hour, 37°C). Wells were washed in PBS containing 0.1% Tween 20 after this and every subsequent step. Purified FLAG-tagged human TIMP-3 (0.4–50 nM) in blocking solution was applied to wells (3 hours, 37°C), and binding was detected with anti-FLAG M2 primary antibody and anti-mouse horseradish peroxidase–conjugated secondary antibody. 3,3′,5,5′-Tetramethylbenzidine (Becton Dickinson, Swindon, UK) substrate was added, the reaction was stopped when appropriate by adding 2 N H2SO4, and absorbance at 450 nm was measured using a FLUOstar Omega microplate reader (BMG Labtech, Aylesbury, Buckinghamshire, UK). Data (mean ± S.E., n = 3 technical repeats) were analyzed using Prism 7.0b software (GraphPad Software, La Jolla, CA) and EC50 values determined using a one-site specific binding model. Flat planar dimensions of suramin analogs were estimated using ICM-Pro software (Molsoft LLC, San Diego, CA).

TIMP-3 binding to LRP1 = target: T2, TIMP-3 binding to LRP1 (Homo sapiens, UniProt P35625); assay: TIMP-3 binding to immobilized LRP1 (ELISA); settings: TIMP-3 preincubated with suramin 200 µg/ml, 1 hour, 37°C
T2 construct: purchased BioMac, Leipzig, Germany
T2 sequence (P35625 24-211): T1 sequence (P35625 24-211)
Description: LRP1 (5 nM; BioMac, Leipzig, Germany) was coated (overnight, 4°C) onto medium-binding ELISA plates (Greiner Bio-One, Stonehouse, UK) in 20 mM HEPES, 150 mM NaCl, 5 mM CaCl2, and 0.05% Tween 20, pH 7.4. Wells were blocked with 10% bovine serum albumin (BSA) in Tris HCl, NaCl, and CaCl2 (TNC) buffer (50 mM Tris HCl, pH 7.5, 150 mM NaCl, 10 mM CaCl2, and 0.05% Brij 35). Wells were washed in TNC buffer containing 0.1% Tween 20 after this and every subsequent step. FLAG-tagged human TIMP-3 (0.4–50 nM), either alone or preincubated with suramin (200 μg/ml, 1 hour, 37°C), was applied to wells in TNC buffer containing 5% BSA (3 hours, 25°C). Binding was detected with anti-FLAG M2 primary antibody and anti-mouse horseradish peroxidase–conjugated secondary antibody in the same buffer. 3,3′,5,5′-Tetramethylbenzidine (Becton Dickinson) substrate was added, the reaction was stopped when appropriate by adding 2 N H2SO4, and absorbance at 450 nm was measured using a FLUOstar Omega microplate reader. Data (mean ± S.D., n = 3) were analyzed using Prism 7.0b software.

TIMP-1 mRNA = TIMP-1 mRNA analysis in HTB94 cells (quantitative PCR); type: cell-based; settings: suramin 0–250 µg/ml, 18 hours
Description: (§1) HTB94 chondrosarcoma cells or primary human chondrocytes (1 × 10^6 cells) were treated in triplicate with 0–250 µg/ml suramin in serum-free DMEM for 18–48 hours. Total RNA was isolated from cells using an RNeasy mini kit (Qiagen, Crawley, UK) and cDNA was synthesized (reverse transcriptase kit; Applied Biosystems, Foster City, CA). Levels of TIMP-1, TIMP-2, TIMP-3, LRP1, and RPLP0 internal reference mRNA were quantified by real-time polymerase […] chain reaction on a Corbett Rotor-Gene 6000 (Corbett Life Science, Mortlake, NSW, Australia) using TaqMan Fast Universal PCR Master Mix (Applied Biosystems) and TaqMan probes (Applied Biosystems) Hs01092512_g1 for TIMP-1, Hs00234278_m1 for TIMP-2, Hs00165949_m1 for TIMP-3, Hs00233856_m1 for LRP1, and Hs99999902_m1 for RPLP0. The ΔΔ threshold cycle values (mean ± S.D., n = 3 technical replicates) are shown relative to control untreated HTB94 cells (defined as 1).

LRP1 mRNA = LRP1 mRNA analysis in HTB94 cells (quantitative PCR); type: cell-based; settings: 18 hours
Description: as §1

[1] = system: human OA cartilage explants; assay: Aggrecan release from human OA cartilage explants (DMMB assay); type: cell-based; settings: 48 hours
Description: The effects of suramin on cartilage degradation were assessed using porcine or human cartilage explants. Explants were rested for 48 hours after dissection and were washed with serum-free DMEM. Explants were then treated with retinoic acid (1 µM; Sigma-Aldrich), interleukin (IL)-1 (10 ng/ml; Peprotech, London, UK), and/or suramin (0–250 µg/ml) in serum-free DMEM for 48 hours.
Aggrecan degradation was analyzed by quantifying aggrecan fragments released into the conditioned media using the dimethylmethylene blue (DMMB) dye-binding assay ([Farndale et al., 1986]) (mean ± S.D., n = 3) and by immunoblotting with neo-epitope antibodies that recognize ADAMTS-cleaved but not intact aggrecan. For immunoblotting, conditioned media were deglycosylated by adding an equal volume of 200 mM sodium acetate and 50 mM Tris/HCl, pH 6.8, containing chondroitinase and β-endoglycosidase (0.05 U each; 18 hours, 37°C; Sigma-Aldrich). Aggrecan fragments were precipitated by adding five volumes of ice-cold acetone (18 hours, −20°C). After centrifugation (13,000 rpm, 10 minutes, 4°C), pellets were resuspended in SDS sample buffer, separated by electrophoresis on a 6% (v/v) polyacrylamide gel, and blotted onto polyvinylidene fluoride. […]

MMP-9 = system: MMP-9; parameters: method as in Taniguti et al., 2012; settings: ref Taniguti et al., 2012; cited from earlier work
[2] = parameters: method as in Voogd et al., 1993; settings: ref Voogd et al., 1993; cited from earlier work

Cc1ccc(C(=O)Nc2ccc(S(=O)(=O)O)c3cc(S(=O)(=O)O)cc(S(=O)(=O)O)c23)cc1NC(=O)c1cccc(NC(=O)Nc2cccc(C(=O)Nc3cc(C(=O)Nc4ccc(S(=O)(=O)O)c5cc(S(=O)(=O)O)cc(S(=O)(=O)O)c45)ccc3C)c2)c1 [suramin]
EC50 (human TIMP-3; plates coated with 10 µg/ml compound, one-site specific binding model, mean ± S.E., n = 3): 1.9 ± 0.21 nM | Kd (human TIMP-3; solid-phase binding assay, plates coated 10 µg/ml, read-out: KD value for TIMP-3 binding to immobilized compound): 1.9 ± 0.2 nM | TIMP-3 binding to immobilized LRP1 (TIMP-3 binding to LRP1): abolished | TIMP-1 mRNA levels (TIMP-1 mRNA): no effect | increase in expression of LRP1 mRNA (LRP1 mRNA; suramin 250 µg/ml): 3 fold | expression of LRP1 mRNA (LRP1 mRNA; suramin up to 200 µg/ml): unaffected | aggrecan degradation ([1]; human OA cartilage explants stimulated with IL-1 10 ng/ml or retinoic acid 1 µM): dose-dependently inhibited | IC50 ([1]; human OA cartilage explants, retinoic acid 1 µM, read-out: IC50 for inhibition of aggrecan degradation): 62 ± 16 µg/mL (≈ 47.8 µM) | MMP-9 activity (MMP-9): inhibit MMP-9 activity | oral bioavailability [2]: not orally bioavailable
